Experimental data from publication PMC6297231 (Nature Communications, 2018).
Read-outs that look alike come from different tables or passages of the source.

Legend:
Assay type in all cases: cell-based
HBL1 = assay: Cell viability assay; conditions: 24 h; HBL1 (NHL); read-out: AZD5991 24h GI50
Procedure: (§1) Cells were plated at 3000 cells/well in 384-well white plates in corresponding cell growth media. […] Caspase-3/7 activation was subsequently determined using a Caspase-Glo 3/7 Reagent (Promega) and viability was assayed using the CellTiter-Glo Reagent (Promega) as described in manufacturer’s instructions. Dose–response curves for caspase-3/7 activation and viability were plotted and analyzed (including EC50 and GI50 determination) using GraphPad Prism.

H1395 = assay: Cell viability assay; conditions: Homo sapiens, NCI-H1395, 24 h; H1395 (Lung); read-out: AZD5991 24h GI50
Procedure: as §1

U2932 = assay: Cell viability assay; conditions: Homo sapiens, 24 h; U2932 (NHL); read-out: AZD5991 24h GI50
Procedure: as §1

MOLM13 [1] = assay: Cell viability assay; conditions: Homo sapiens, MOLM-13, 24 h; MOLM13 (AML); read-out: AZD5991 24h GI50
Procedure: as §1

A375 = assay: Cell viability assay; conditions: Homo sapiens, A-375, 24 h; A375 (Skin); read-out: AZD5991 24h GI50
Procedure: as §1

H23 [2] = assay: Cell viability assay; conditions: Homo sapiens, NCI-H23, 24 h; H23 (Lung); read-out: AZD5991 24h GI50
Procedure: as §1

KMS26 = assay: Cell viability assay; conditions: KMS-26, 24 h; KMS26 (MM); read-out: AZD5991 24h GI50
Procedure: as §1

OPM2 = assay: Cell viability assay; conditions: Homo sapiens, OPM-2, 24 h; OPM2 (MM); read-out: AZD5991 24h GI50
Procedure: as §1

SKMEL2 = assay: Cell viability assay; conditions: Homo sapiens, SK-MEL-2, 24 h; SKMEL2 (Skin); read-out: AZD5991 24h GI50
Procedure: as §1

LnCAP = assay: Cell viability assay; conditions: Homo sapiens, 24 h; LnCAP (Urology); read-out: AZD5991 24h GI50
Procedure: as §1

MWCL1 = assay: Cell viability assay; conditions: 24 h; MWCL1 (NHL); read-out: AZD5991 24h GI50
Procedure: as §1

MOLM13 [3] = assay: Caspase-3/7 activation assay; conditions: Homo sapiens, MOLM-13, 6 h
Procedure: as §1

HEL92.1.7 = assay: Caspase-3/7 activation assay; conditions: Homo sapiens, HEL 92.1.7, 6 h
Procedure: as §1

OCILY3 = assay: Cell viability assay; conditions: Homo sapiens, OCI-Ly3, 24 h; OCILY3 (NHL); read-out: AZD5991 24h GI50
Procedure: as §1

H2126 = assay: Cell viability assay; conditions: Homo sapiens, NCI-H2126, 24 h; H2126 (Lung); read-out: AZD5991 24h GI50
Procedure: as §1

HCC1954 = assay: Cell viability assay; conditions: Homo sapiens, 24 h; HCC1954 (Breast); read-out: AZD5991 24h GI50
Procedure: as §1

JJN3 = assay: Cell viability assay; conditions: Homo sapiens, JJN-3, 24 h; JJN3 (MM); read-out: AZD5991 24h GI50
Procedure: as §1

REC1 = assay: Cell viability assay; conditions: Homo sapiens, 24 h; REC1 (NHL); read-out: AZD5991 24h GI50
Procedure: as §1

H23 [4] = assay: Caspase-3/7 activation assay; conditions: Homo sapiens
Procedure: as §1

NB4 = assay: Cell viability assay; conditions: Homo sapiens, NB-4, 24 h; NB4 (AML); read-out: AZD5991 24h GI50
Procedure: as §1

MV411 = assay: Caspase-3/7 activation assay; conditions: Homo sapiens
Procedure: as §1

Nomo1 [5] = assay: Cell viability assay; conditions: Homo sapiens, NOMO-1, 24 h; Nomo1 (AML); read-out: AZD5991 24h GI50
Procedure: as §1

ML2 = assay: Cell viability assay; conditions: Homo sapiens, ML-2, 24 h; ML2 (AML); read-out: AZD5991 24h GI50
Procedure: as §1

Nomo1 [6] = assay: Caspase-3/7 activation assay; conditions: Homo sapiens, NOMO-1, 6 h
Procedure: as §1

Raji = assay: Cell viability assay; conditions: Homo sapiens, 24 h; Raji (NHL); read-out: AZD5991 24h GI50
Procedure: as §1

KMS11 = assay: Cell viability assay; conditions: Homo sapiens, KMS-11, 24 h; KMS11 (MM); read-out: AZD5991 24h GI50
Procedure: as §1

OV90 = assay: Cell viability assay; conditions: Homo sapiens, OV-90, 24 h; OV90 (Others); read-out: AZD5991 24h GI50
Procedure: as §1

5637 = assay: Cell viability assay; conditions: 24 h; 5637 (Urology); read-out: AZD5991 24h GI50
Procedure: as §1

EJM = assay: Cell viability assay; conditions: Homo sapiens, 24 h; EJM (MM); read-out: AZD5991 24h GI50
Procedure: as §1

TMD8 = assay: Cell viability assay; conditions: Homo sapiens, 24 h; TMD8 (NHL); read-out: AZD5991 24h GI50
Procedure: as §1

T47D = assay: Cell viability assay; conditions: Homo sapiens, 24 h; T47D (Breast); read-out: AZD5991 24h GI50
Procedure: as §1

## Cc1c2c(nn1C)CSCc1cc(n(C)n1)CSc1cc(c3ccccc3c1)OCCCc1c(C(=O)O)n(C)c3c-2c(Cl)ccc13 (atropisomer, axis not shown; (Ra)) [(Ra)-7]
HBL1
  GI50: 8.32 µM
H1395
  GI50: 12 µM
U2932
  GI50: 15.5 µM
MOLM13 [1]
  GI50: 0.042 µM
A375
  GI50: 13.5 µM
H23 [2]
  GI50: 0.122 µM
KMS26
  GI50: 0.141 µM
OPM2
  GI50: 0.057 µM
SKMEL2
  GI50: 9.31 µM
LnCAP
  GI50: 13.4 µM
MWCL1
  GI50: 1.65 µM
MOLM13 [3]; read-out: 6h caspase EC50, MOLM13, single agent
  EC50: 0.108 µM
MOLM13 [3]; read-out: AZD5991 6h EC50, MOLM13 (AML), caspase 3/7 activation
  EC50: 0.063 µM
HEL92.1.7; read-out: 6h caspase EC50, HEL9217, single agent
  EC50: > 0.333 µM
HEL92.1.7; read-out: AZD5991 6h EC50, HEL92.1.7 (AML), caspase 3/7 activation
  EC50: 0.564 µM
OCILY3
  GI50: 6.19 µM
H2126
  GI50: 0.32 µM
HCC1954
  GI50: 0.756 µM
JJN3
  GI50: 0.255 µM
REC1
  GI50: 0.728 µM
H23 [4]; NCI-H23, 6 h, read-out: AZD5991 6h EC50, H23 (Lung), caspase 3/7 activation
  EC50: 0.346 µM
H23 [4]; NCI-H23, caspase activation, Mcl-1-dependent cell line, read-out: NCI-H23, EC50
  EC50: 0.19 µM
H23 [4]; NCI-H23, mean of log transformed data, read-out: NCI-H23 caspase pEC50 (converted)
  EC50: 0.195 µM
NB4
  GI50: 0.292 µM
MV411; MV4-11, 6 h, read-out: 6h caspase EC50, MV411, single agent
  EC50: 0.0563 µM
MV411; MV4-11, 6 h, read-out: AZD5991 6h EC50, MV411 (AML), caspase 3/7 activation
  EC50: 0.025 µM
MV411; MV4-11, caspase activation, Mcl-1-dependent cell line, read-out: MV4-11, EC50
  EC50: 0.024 µM
MV411; MV4-11, mean of log transformed data, read-out: MV4-11 caspase pEC50 (converted)
  EC50: 0.024 µM
Nomo1 [5]
  GI50: 0.021 µM
ML2
  GI50: 0.069 µM
Nomo1 [6]; read-out: 6h caspase EC50, NOMO1, single agent
  EC50: 0.0325 µM
Nomo1 [6]; read-out: AZD5991 6h EC50, Nomo1 (AML), caspase 3/7 activation
  EC50: 0.047 µM
Raji
  GI50: 0.167 µM
KMS11
  GI50: 0.54 µM
OV90
  GI50: 22.1 µM
5637
  GI50: 28 µM
EJM
  GI50: 0.105 µM
TMD8
  GI50: 0.535 µM
T47D
  GI50: > 30 µM
